According to US20060040861A1, “Method of treating, preventing, and diagnosing prostate cancer” (priority 2004, published 2006):

What was measured:
Format in all cases: cell-based, human
[1] = system: PC-3 cells; assay: MTT assay (cell growth / viability); conditions: 0-1.92 μg/ml, 5 days
Protocol: (§1) DU145 (1×10^3/well), PC-3 (1×10^3/well) and LNCaP-FGC (1.5×10^3/well) cells were seeded in 96-well plates 24 hours prior to serum starvation. Cells were starved of serum for 24 hours and then incubated in the serum-free medium with or without 12.5 μg/ml leptin for 5 days. 3-(4,5-dimethylthiazol-2-yl)-2,5-diphenyl tetrazolium bromide (MTT) was added to each well to a concentration of 0.5 mg/ml. After 3-hour incubation at 37° C., cells were lysed in 50% dimethylformamide and 20% SDS at 37° C. Optical densities (O.D.) at 550 nm and 670 nm were measured by a plate reader, and differential O.D. between 550 nm and 670 nm (O.D. 550 nm minus O.D. 670 nm) were determined. Each experiment was performed in quadruplicate, and the values are reported as mean±SD.
(§2) DU145 (0.5-1.0×10^3/well), PC-3 (0.5-1.0×10^3/well), and LNCaP FGC (0.75-1.5×10^3/well) cells were seeded in 96-well plates 24 hours prior to serum starvation. Cells were starved of serum for 24 hours and then incubated in the serum-free medium with or without cytokine(s), DHT and/or doxorubicin at indicated concentrations for 5 days. MTT was added to each well to a concentration of 0.5 mg/ml. After being incubated at 37° C. for 3 hours, cells were lysed in 50% dimethylformamide and 20% SDS at 37° C. Optical densities (OD) at 550 and 670 nm were measured by a plate reader, and differential OD between 550 and 670 nm (OD 550 minus OD 670 nm) were determined. Each experiment was performed in quadruplicate, and the values were reported as mean±S.D.

[2] = system: LNCaP-FGC cells; assay: MTT assay (cell growth / viability); conditions: 0-1.92 μg/ml, 5 days
Protocol: as §1, §2

[3] = system: DU145 cells; assay: MTT assay (cell growth / viability); conditions: 0-1.92 μg/ml, 5 days
Protocol: as §1, §2
Sucrose gradients were set up in 2.2-ml centrifuge tubes (Beckman Coulter, Inc., Fullerton, Calif.) by layering 5, 10, 15 and 20% (w/v) sucrose in velocity sedimentation buffer (10 mM HEPES, pH 8; 125 mM NaCl). Gradients were then equilibrated overnight at 4° C. Twenty micrograms of f-adiponectin in 200 μl of velocity sedimentation buffer containing 5 μl of HMW-Native protein marker kit (GE Healthcare, Piscataway, N.J.) set to 0.5 μg/μl albumin was overlayed onto the sucrose gradients and spun in a Beckman TLS-55 rotor at 55,000 rpm for 5 hours at 4° C. Fractions (150 μl each) were sequentially collected from the top to the bottom; aliquots were removed and used immediately in the MTT assay. The remaining material was stored at −80° C. for Western blot analysis with anti-adiponectin antibody and SDS-PAGE with silver staining. For the MTT assay, DU145 cells (0.5×1 03/well) were serum-starved and incubated in triplicate in 60 μl of the serum-free medium plus 30 μl of each fraction. For Western blot analysis, 0.5 μl of each fraction was electrophoresed on a 10% SDS-polyacrylamide gel and electrotransferred to a polyvinylidene difluoride membrane. The membrane was washed, blocked, and hybridized with the anti-adiponectin antibody. Bands were visualized using a Lumiglo reagent (Cell Signaling Technology, Inc., Beverly, Mass.). For SDS-PAGE, 20 μl of each fraction was electrophoresed on a 10% SDS-polyacrylamide gel, followed by silver staining using the Silver Stain kit (Bio-Rad Laboratories, Inc., Hercules, Calif.) to visualize molecular weight markers.

[4] = system: LNCaP-FGC cells; assay: [3H] thymidine incorporation assay; conditions: serum-deprived, leptin up to 12.5 μg/ml, IL-6 100 ng/ml or IGF-I 100 ng/ml, 20 hours
Protocol: (§3) DU145 (1.5×10^5/well), PC-3 (1.0×10^5/well) and LNCaP-FGC (2.0×10^5/well) cells were seeded into 24-well plates 24 hours before serum-starvation. Cells were deprived of serum for 48 hours, followed by incubation with leptin at indicated concentrations or 100 ng/ml IL-6 for 20 hours. In some experiments, cells were pretreated with SP600125 prior to cytokine stimulation as described below. Cells in each well were pulsed with 1 μCi of [^3H] thymidine (Amersham Pharmacia Biotech Inc., Piscataway, N.J., USA) during the final 5 hours, washed once with PBS, fixed with cold 5% trichloroacetic acid, solubilized with 0.25 M NaOH, and counted in scintillant. Each experiment was performed in quadruplicate, and the values are reported as mean±SD.

[5] = system: DU145 cells; assay: [3H] thymidine incorporation assay; conditions: DU145, serum-deprived; leptin up to 12.5 μg/ml, IL-6 100 ng/ml or IGF-I 100 ng/ml; 20 hours
Protocol: as §3
(§4) SP600125 was dissolved in DMSO to make a stock solution. Eighty-percent confluent prostate cancer cells were serum-starved for 24 hours and pretreated with SP600125 at indicated concentrations for 30 minutes, followed by leptin treatment (12.5 μg/ml): 15 minutes for Western blot analysis or 20 hours for thymidine incorporation assays. DMSO-treated cells were employed as controls.

[6] = system: PC-3 cells; assay: [3H] thymidine incorporation assay; conditions: PC-3, serum-deprived; leptin up to 12.5 μg/ml, IL-6 100 ng/ml or IGF-I 100 ng/ml; 20 hours
Protocol: as §3, §4

| Compound | cell growth (MTT), doxorubicin alone [1] | cell growth (MTT), doxorubicin alone [2] | cell growth (MTT), doxorubicin alone [3] | [3H] thymidine incorporation (cell proliferation), cytokine alone [4] | [3H] thymidine incorporation (cell proliferation), cytokine alone [5] | [3H] thymidine incorporation (cell proliferation), cytokine alone [6] |
| --- | --- | --- | --- | --- | --- | --- |
| COc1cccc2c1C(=O)c1c(O)c3c(c(O)c1C2=O)C[C@@](O)(C(=O)CO)C[C@@H]3O[C@H]1C[C@H](N)[C@H](O)[C@H](C)O1 [doxorubicin, reference compound] | suppressed cell growth in a dose-dependent manner | suppressed cell growth in a dose-dependent manner | suppressed cell growth in a dose-dependent manner |  |  |  |
| IL-6: Recombinant human IL-6 purchased from R&D Systems; adipose cytokine |  |  |  | inhibited | stimulated cell proliferation | stimulated cell proliferation |
| IGF-I: Recombinant human IGF-I from R&D Systems; adipose cytokine |  |  |  | did not affect | augmented cell proliferation | augmented cell proliferation |
